Source: patent US20050107466A1, “Method of treating or reducing suicidal thoughts with escitalopram” (H. Lundbeck A/S, priority 2003, published 2005)

Experiments:
[1] = randomised, double-blind, parallel-group clinical trial, 8 weeks; HAM-D and MADRS items of suicidal thoughts; format: in vivo; details: escitalopram daily dose of 10-20 mg compared with 40 mg citalopram; persons with major depression
Description: In brief, a clinical trial was designed as a randomised, double-blind, parallel-group trial comprising two different fixed escitalopram doses (10 mg and 20 mg per day) for eight weeks. A placebo-arm was included, as was an active comparator arm in terms of 40 mg citalopram per day. The persons fulfilled the following criteria: (a) DSM-IV (i) major depression with symptoms present for a minimum of 4 weeks; (b) minimum total score of 22 on the 10-item MADRS (Montgomery SA, Åsberg M., A new depression scale designed to be sensitive to change., Br. J. Psychiatry 1979, 134, 382-389) and a score of 2 or more on the HAM-D item (depressed mood) (Hamilton, M., Br. J. Soc. Clin. Psychol 1967, 6, 278-296). Persons who still fulfilled the MADRS and HAM-D criteria after 1-week, single-blind placebo lead-in were randomised to the double-blind treatment. Throughout the 8-week double-blind treatment period, persons assigned to placebo or escitalopram 10 mg daily received no adjustment of dosage. Persons in the escitalopram 20 mg daily group and in the citalopram group were titrated to their final dose of after 1 week of treatment at half of their assigned dose. […] Persons were evaluated at baseline (the end of the 1-week placebo lead-in) and after 1, 2, 4, 6, and 8 weeks. […]

[2] = analysis of data from four clinical studies; suicidal thoughts (MADRS item 10); format: in vivo, patients

Compound: CN(C)CCC[C@@]1(c2ccc(F)cc2)OCc2cc(C#N)ccc21 [escitalopram]
- reducing suicidal thoughts [1]: more effective
- overall effect on suicidal thoughts or suicidal ideation ([2]; after one week of treatment with 10-20 mg escitalopram compared to placebo): significantly pronounced already after one week
- percentage of patients experiencing an increase in suicidal thoughts ([2]; after one week of treatment, compared to patients treated with citalopram or placebo): significantly lower
- treatment of the group of patients having a score greater than or equal to 2 on item 10 on the MADRS depression scale ([2]; compared to citalopram, results of four clinical studies): more much more effective
- alleviation of suicidal ideation ([2]; general statement of the finding): early alleviation of suicidal ideation
